The source of these data is patent US12247010B2, “Tubulin inhibitors” (LIN BIOSCIENCE PTY LTD., priority 2017, dated 2025).

By pIC50 is commonly meant −log10 of the IC50, conventionally taken in molar units.

The experiment deals with U87MG cells. The experiment can be described thus: Cytotoxicity assay (cell viability, CellTiter 96 Aqueous MTS). The experiment is classed as cell-based. Conditions: Homo sapiens, U-87 MG, 72 h, 72 hours incubation, starting concentration 50 uM, 9 point half log dilution, average where tested repeatedly. The procedure:
Example 3: Cytotoxicity Assay
U87MG cells were plated at a density of 7×10^3 cells/well and allowed to seed overnight. Cells were then treated with compounds from Table 1 or CMPD-1 (4-(2′-fluoro-[1,1′-biphenyl]-4-yl)-N-(4-hydroxyphenyl)butanamide as a positive control) were added to cells at a starting concentration of 50 uM, with a 9 point half log dilution, and incubated for 72 hours prior to viability determination. IC50 values were calculated from cell viability as measured using the CellTiter 96® Aqueous MTS reagent from Promega©, and the results are shown in Table 2.

pIC50: −log10 of the molar value.

With `O=C(CCCc1ccc(-c2ccccc2F)cc1)Nc1ccc2[nH]ncc2c1` [Compound 4, 4-(2′-fluoro-[1,1′-biphenyl]-4-yl)-N-(1H-indazol-5-yl)butanamide], the pIC50 was 5.30 to 6.00.

With `O=C(CCCc1ccc(-c2ccccc2F)cc1)Nc1ccc2[nH]ccc2c1` [Compound 6, 4-(2′-fluoro-[1,1′-biphenyl]-4-yl)-N-(1H-indol-5-yl)butanamide], the pIC50 was 5.30 to 6.00.

For `O=C(CCCc1ccc(-c2ccccc2F)cc1)Nc1ccc(O)nc1` [Compound 8, 4-(2′-fluoro-[1,1′-biphenyl]-4-yl)-N-(6-hydroxypyridin-3-yl)butanamide], the pIC50 is under 5.30. As for `O=C(CCCc1ccc(-c2ccccc2F)cc1)Nc1cccnc1` [Compound 37, 4-(2′-fluoro-[1,1′-biphenyl]-4-yl)-N-(pyridin-3-yl)butanamide], the pIC50 was 6.00 to 6.30. The figure for `O=C(CCCc1ccc(-c2ccccc2F)cc1)Nc1nccs1` [Compound 38, 4-(2′-fluoro-[1,1′-biphenyl]-4-yl)-N-(thiazol-2-yl)butanamide] is under 5.30; for `COc1ccc(NC(=O)CCCc2ccc(-c3ccccc3F)cc2)cn1` [Compound 39, 4-(2′-fluoro-[1,1′-biphenyl]-4-yl)-N-(6-methoxypyridin-3-yl)butanamide] it is under 5.30. The compound `O=C(CCCc1ccc(-c2ccccc2F)cc1)Nc1ccccn1` [Compound 40, 4-(2′-fluoro-[1,1′-biphenyl]-4-yl)-N-(pyridin-2-yl)butanamide] had a pIC50 of under 5.30. `O=C(CCCc1ccc(-c2ccccc2F)cc1)NCc1cccnc1` [Compound 41, 4-(2′-fluoro-[1,1′-biphenyl]-4-yl)-N-(pyridin-3-ylmethyl)butanamide] gave a negative-log IC50 (pIC50) of under 5.30. The compound `O=C(CCCc1ccc(-c2ccccc2F)cc1)NCc1ccncc1` [Compound 42, 4-(2′-fluoro-[1,1′-biphenyl]-4-yl)-N-(pyridin-4-ylmethyl)butanamide] gave a pIC50 of 5.30 to 6.00. In turn, `O=C(CCCc1ccc(-c2ccccc2F)cc1)NCc1ccccn1` [Compound 43, 4-(2′-fluoro-[1,1′-biphenyl]-4-yl)-N-(pyridin-2-ylmethyl)butanamide] had a pIC50 of 5.30 to 6.00. `COc1ccc(CNC(=O)CCCc2ccc(-c3ccccc3F)cc2)cc1` [Compound 44, 4-(2′-fluoro-[1,1′-biphenyl]-4-yl)-N-(4-methoxybenzyl)butanamide] had a pIC50 of 6.00 to 6.30. Take `Cc1ccc(NC(=O)CCCc2ccc(-c3ccccc3F)cc2)cn1` [Compound 45, 4-(2′-fluoro-[1,1′-biphenyl]-4-yl)-N-(6-methylpyridin-3-yl)butanamide]: the pIC50 was over 6.30. The value for `O=C(CCCc1ccc(-c2ccccc2F)cc1)Nc1cn[nH]c1` [Compound 47, 4-(2′-fluoro-[1,1′-biphenyl]-4-yl)-N-(1H-pyrazol-4-yl)butanamide] was under 5.30; that for `Cn1cc(CNC(=O)CCCc2ccc(-c3ccccc3F)cc2)cn1` [Compound 48, 4-(2′-fluoro-[1,1′-biphenyl]-4-yl)-N-((1-methyl-1H-pyrazol-4-yl)methyl)butanamide] was 5.30 to 6.00. For the compound `O=C(CCCc1ccc(-c2ccccc2F)cc1)NCC1CC1` [Compound 50, N-(cyclopropylmethyl)-4-(2′-fluoro-[1,1′-biphenyl]-4-yl)butanamide], the pIC50 was 5.30 to 6.00.

Take `O=C(CCCc1ccc(-c2ccccc2F)cc1)Nc1ccc(C(F)(F)F)nc1` [Compound 51, 4-(2′-fluoro-[1,1′-biphenyl]-4-yl)-N-(6-(trifluoromethyl)pyridin-3-yl)butanamide]: the negative-log IC50 (pIC50) was under 5.30.

In the case of `CN(C(=O)CCCc1ccc(-c2ccccc2F)cc1)c1cccnc1` [Compound 52, 4-(2′-fluoro-[1,1′-biphenyl]-4-yl)-N-methyl-N-(pyridin-3-yl)butanamide], the pIC50 was under 5.30.

`O=C(CCCc1ccc(-c2ccccc2F)cc1)Nc1ccc2c(c1)OCC(=O)N2` [Compound 53, 4-(2′-fluoro-[1,1′-biphenyl]-4-yl)-N-(3-oxo-3,4-dihydro-2H-benzo[b][1,4]oxazin-7-yl)butanamide]: the pIC50 is 6.00 to 6.30. Compound `O=C(CCCc1ccc(-c2ccccc2F)cc1)NC1CCC(F)(F)CC1` [Compound 54, N-(4,4-difluorocyclohexyl)-4-(2′-fluoro-[1,1′-biphenyl]-4-yl)butanamide] showed a pIC50 of under 5.30. `O=C(CCCc1ccc(-c2ccccc2F)cc1)NC1COC1` [Compound 55, 4-(2′-fluoro-[1,1′-biphenyl]-4-yl)-N-(oxetan-3-yl)butanamide] showed a pIC50 of 5.30 to 6.00. In turn, `O=C(CCCc1ccc(-c2ccccc2F)cc1)Nc1ccc2[nH]c(=O)[nH]c2c1` [Compound 58, 4-(2′-fluoro-[1,1′-biphenyl]-4-yl)-N-(2-oxo-2,3-dihydro-1H-benzo[d]imidazol-5-yl)butanamide] had a pIC50 of under 5.30. `O=C(CCCc1ccc(-c2ccccc2F)cc1)Nc1ccc2c(c1)CNC2=O` [Compound 59, 4-(2′-fluoro-[1,1′-biphenyl]-4-yl)-N-(1-oxoisoindolin-5-yl)butanamide] had a pIC50 of under 5.30. The value for `O=C(CCCc1ccc(-c2ccccc2F)cc1)NC1CCC(O)CC1` (stereo not drawn) [Compound 62, 4-(2′-fluoro-[1,1′-biphenyl]-4-yl)-N-(4-hydroxycyclohexyl)butanamide] was under 5.30; that for `O=C(CCCc1ccc(-c2ccccc2F)cc1)Nc1ccon1` [Compound 63, 4-(2′-fluoro-[1,1′-biphenyl]-4-yl)-N-(isoxazol-3-yl)butanamide] was under 5.30. In the case of `O=C(NCCCc1ccc(-c2ccccc2F)cc1)c1cccnc1` [Compound 64, N-(3-(2′-fluoro-[1,1′-biphenyl]-4-yl)propyl)nicotinamide], the pIC50 was over 6.30. As to `O=C(NCCCc1ccc(-c2ccccc2F)cc1)c1cccnn1` [Compound 65, N-(3-(2′-fluoro-[1,1′-biphenyl]-4-yl)propyl)pyridazine-3-carboxamide], the pIC50 was under 5.30. On to `O=C(NCCCc1ccc(-c2ccccc2F)cc1)c1cn[nH]c1` [Compound 66, N-(3-(2′-fluoro-[1,1′-biphenyl]-4-yl)propyl)-1H-pyrazole-4-carboxamide], for which the pIC50 is under 5.30. The figure for `O=C(NCCCc1ccc(-c2ccccc2F)cc1)c1cncnc1` [Compound 67, N-(3-(2′-fluoro-[1,1′-biphenyl]-4-yl)propyl)pyrimidine-5-carboxamide] is over 6.30; for `O=C(NCCCc1ccc(-c2ccccc2F)cc1)c1ccc2[nH]nnc2c1` [Compound 70, N-(3-(2′-fluoro-[1,1′-biphenyl]-4-yl)propyl)-1H-benzo[d][1,2,3]triazole-5-carboxamide] it is under 5.30. `Cc1ccc(C(=O)NCCCc2ccc(-c3ccccc3F)cc2)cn1` [Compound 71, N-(3-(2′-fluoro-[1,1′-biphenyl]-4-yl)propyl)-6-methylnicotinamide]: the pIC50 is over 6.30. With `O=C(NCCCc1ccc(-c2ccccc2F)cc1)c1ccc2[nH]ncc2c1` [Compound 73, N-(3-(2′-fluoro-[1,1′-biphenyl]-4-yl)propyl)-1H-indazole-5-carboxamide], the pIC50 was 5.30 to 6.00. As to `O=C(NCCCc1ccc(-c2ccccc2F)cc1)c1ccc2[nH]ccc2c1` [Compound 74, N-(3-(2′-fluoro-[1,1′-biphenyl]-4-yl)propyl)-1H-indole-5-carboxamide], the negative logarithm of the IC50 (pIC50) was 6.00 to 6.30. The value for `O=C(NCCCc1ccc(-c2ccccc2F)cc1)C1CC(F)(F)C1` [Compound 75, 3,3-difluoro-N-(3-(2′-fluoro-[1,1′-biphenyl]-4-yl)propyl)cyclobutane-1-carboxamide] was under 5.30; that for `O=C(NCCCc1ccc(-c2ccccc2F)cc1)c1cnccn1` [Compound 76, N-(3-(2′-fluoro-[1,1′-biphenyl]-4-yl)propyl)pyrazine-2-carboxamide] was under 5.30; that for `O=C(NCCCc1ccc(-c2ccccc2F)cc1)[C@H]1C[C@@H](O)C1` [Compound 77, (1s,3s)-N-(3-(2′-fluoro-[1,1′-biphenyl]-4-yl)propyl)-3-hydroxycyclobutane-1-carboxamide] was under 5.30. In turn, `O=C(NCCCc1ccc(-c2ccccc2F)cc1)c1ccc2cn[nH]c2c1` [Compound 79, N-(3-(2′-fluoro-[1,1′-biphenyl]-4-yl)propyl)-1H-indazole-6-carboxamide] gave a pIC50 of under 5.30.

With `Cc1cncc(C(=O)NCCCc2ccc(-c3ccccc3F)cc2)c1` [Compound 80, N-(3-(2′-fluoro-[1,1′-biphenyl]-4-yl)propyl)-5-methylnicotinamide], the pIC50 was 5.30 to 6.00. Compound `O=C(NCCCc1ccc(-c2ccccc2F)cc1)C1=CN2C=CNC2C=C1` (stereo not drawn) [Compound 82, N-(3-(2′-fluoro-[1,1′-biphenyl]-4-yl)propyl)-1,8a-dihydroimidazo[1,2-a]pyridine-6-carboxamide] had a pIC50 of under 5.30. Turning to `O=C(NCCCc1ccc(-c2ccccc2F)cc1)c1ccc(C(F)(F)F)nc1` [Compound 83, N-(3-(2′-fluoro-[1,1′-biphenyl]-4-yl)propyl)-6-(trifluoromethyl)nicotinamide], the pIC50 was 5.30 to 6.00. `O=C(NCCCc1ccc(-c2ccccc2F)cc1)c1nc2ccccc2[nH]1` [Compound 84, N-(3-(2′-fluoro-[1,1′-biphenyl]-4-yl)propyl)-1H-benzo[d]imidazole-2-carboxamide]: the pIC50 is under 5.30. As to `O=C(NCCCc1ccc(-c2ccccc2F)cc1)c1cncc(C(F)(F)F)c1` [Compound 85, N-(3-(2′-fluoro-[1,1′-biphenyl]-4-yl)propyl)-5-(trifluoromethyl)nicotinamide], the pIC50 is 5.30 to 6.00. In turn, `CN1CCC(C(=O)NCCCc2ccc(-c3ccccc3F)cc2)CC1` [Compound 87, N-(3-(2′-fluoro-[1,1′-biphenyl]-4-yl)propyl)-1-methylpiperidine-4-carboxamide] had a pIC50 of under 5.30.
